In patent US12109284B2, “Compositions comprising fluoride and calcium and method for preparing them” (DENTHERAPY LTD, priority 2016, dated 2024):

Assays:
[1] = Microindentation cycling re-mineralisation model (Example 4); design: species or system human
Experimental: Citric acid eroded human enamel specimens were placed into a cycling re-mineralisation model where they were cycled between a treatment, artificial saliva and citric acid five times a day over five days. Three different treatments were tested and were: 1. 2% OPN formulation containing 500 ppm fluoride. 2. 500 ppm fluoride solution. 3. Deionised water. At the end of each of the five days the micro hardness of the enamel was measured by Vickers microindentation to determine the extent of the re-mineralisation of the enamel lesions.
The microhardness of the enamel was determined by indentation using a Vickers diamond-tip indenter. Each hardness value was determined from the average of ten individual measurements made centrally on each enamel specimen using 1.9N force over an indent time of 20 seconds. At the start of each set of measurements a calibration check was performed using a standard metal block to ensure the reproducibility of microhardness was within 3% of the test block micro hardness.

[2] = cited from earlier work; for Buffer range: pH

Molecule: [F-].[Na+] [NaF, sodium fluoride]
- Trend in remineralisation (microhardness ranking) ([1]; Day 1): OPN = NaF > DI water
- Trend in remineralisation (microhardness ranking) ([1]; Day 2): OPN = NaF > DI water
- Trend in remineralisation (microhardness ranking) ([1]; Day 3): NaF = OPN > DI water
- Trend in remineralisation (microhardness ranking) ([1]; Day 4 (probability 0.06)): OPN = NaF > DI water
- Trend in remineralisation (microhardness ranking) ([1]; Day 5): OPN > NaF > DI water
- Increase in hardness of eroded enamel compared to deionised water ([1]; all time points): statistically superior to deionised water

Molecule: O=C([O-])O.[Na+] [sodium bicarbonate]
- Buffer range [2]: 5.1-8.0

Molecule: tris(hydroxymethyl)aminomethane
- pKa [2]: 8.97
- Buffer range [2]: 7.5-9.5
